Among the data in US9023865B2, “Compounds that are ERK inhibitors” (Merck Sharp & Dohme Corp., priority 2011, dated 2015) are IC50 values, retold here.

This assay addresses Active Human ERK2 (hERK2) (Homo sapiens (Human), UniProt P28482). The assay can be described thus: Active Human ERK2 (hERK2) Activity Assay (IMAP-FP). The format is biochemical. How it is done: Assays Active Human ERK2 (hERK2) Activity Assay:
Activated ERK2 activity was determined in an IMAP-FP assay (Molecular Devices). […] The final reaction in each well of 25 μL consists of 0.5 nM hERK2, 900 nM unlabeled peptide, 80 nM labeled-peptide, and 30 μM ATP. Phosphorylation reactions were allowed to proceed for 60 minutes and were immediately quenched by the addition of […] IMAP detection beads (1:1000 dilutions) in IMAP binding buffer (Molecular Devices) with 24 mM NaCl. Plates were read on EnVision reader after 60 minutes binding equilibration using Fluorescence Polarization protocol (Perkin Elmer).

[1] abbreviates: phosphorylated active hERK2, 30 μM ATP, average, read-out: ERK 2 Human average IC50.
Setting [2] is: read-out: AERK2 IC50 (Active human ERK2 Activity Assay).

Molecules are shown by their SMILES. Like-named read-outs stand apart in the source and are kept apart here.

The IC50 is the concentration that inhibits the measured activity by half.

Sequence of Active Human ERK2 (hERK2) (P28482 whole entry): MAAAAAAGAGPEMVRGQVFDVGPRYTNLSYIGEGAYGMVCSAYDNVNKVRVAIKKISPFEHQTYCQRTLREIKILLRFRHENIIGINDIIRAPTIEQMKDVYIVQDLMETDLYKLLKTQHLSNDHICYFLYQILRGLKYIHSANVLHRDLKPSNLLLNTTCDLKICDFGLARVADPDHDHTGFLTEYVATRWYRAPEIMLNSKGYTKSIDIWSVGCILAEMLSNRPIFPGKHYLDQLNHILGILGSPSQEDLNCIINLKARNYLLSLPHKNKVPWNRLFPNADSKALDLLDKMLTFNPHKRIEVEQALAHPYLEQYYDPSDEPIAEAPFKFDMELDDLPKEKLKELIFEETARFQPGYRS

As for `Cc1cc(-c2n[nH]c3cc(NC(=O)NCc4cccc5ccccc45)ncc23)ccn1` [Example 32, 1-[3-(2-methylpyridin-4-yl)-1H-pyrazolo[4,3-c]pyridin-6-yl]-3-(naphthalen-1-ylmethyl)urea], the IC50 under setting [1] amounted to 3.92 nM.

In the case of `COC[C@@H](NC(=O)Nc1cc2[nH]nc(-c3ccnc(N4CCOCC4)c3)c2cn1)c1ccc(F)cc1` [Example 298], under setting [1], the IC50 is 1.17 nM.

Take `[2H]C([2H])([2H])OC[C@@H](NC(=O)Nc1cc2[nH]nc(C3CC3)c2cn1)c1ccccc1` [Example 161]: under setting [1], the IC50 is 5.8 nM.

Regarding `Cc1cc(-c2n[nH]c3cc(NC(=O)NC[C@@H](C)c4ccccc4)ncc23)ccn1` [Example 622], the IC50 under setting [1] was determined as 0.789 nM.

As for `Cc1cc(-c2n[nH]c3cc(NC(=O)N[C@H](C(=O)O)C(C)C)ncc23)ccn1` [Example 452], under setting [1], the IC50 came out at 2240 nM.

Regarding `Cc1cc(-c2n[nH]c3cc(NC(=O)NCCc4nc5ccccc5n4C)ncc23)ccn1` [Example 382], the IC50 under setting [1] stood at 6.26 nM.

For `COC[C@H](NC(=O)Nc1cc2[nH]nc(-c3ccnc(F)c3)c2cn1)c1ccccc1` [Example 601], the IC50 under setting [1] was 20.6 nM.

Consider `Cc1cc(-c2n[nH]c3cc(NC(=O)N4CC(c5cccc(F)c5)C4)ncc23)ccn1` [Example 278], for which, under setting [1], the IC50 came to 43.4 nM.

Take `COC[C@@H](NC(=O)Nc1cc2[nH]nc(-c3cc(C)on3)c2cn1)c1ccc(F)cc1` [Example 688]: the IC50 under setting [1] stood at 5.39 nM.

As to `Cc1cc(-c2n[nH]c3cc(NC(=O)N[C@@H](C)C(=O)O)ncc23)ccn1` [Example 454], under setting [1], the 50% inhibitory concentration (IC50) is 237 nM.

In the case of `Cc1cc(-c2n[nH]c3cc(NC(=O)NCCC4=CCCC4)ncc23)ccn1` [Example 212], under setting [1], the IC50 amounted to 1.76 nM.

Consider `Cc1cc(-c2n[nH]c3c(Cl)c(NC(=O)N[C@H](C)c4ccccc4)ncc23)ccn1` [Example 571, (R)-1-(7-chloro-3-(2-methylpyridin-4-yl)-1H-pyrazolo[4,3-c]pyridin-6-yl)-3-(1-phenylethyl)urea], for which the IC50 under setting [1] was found to be 3.07 nM.

On to `Cc1cc(-c2n[nH]c3c(F)c(NC(=O)N[C@H](C)c4ccc(Cl)cc4)ncc23)ccn1` [Example 534], for which, under setting [1], the IC50 came to 0.509 nM.

In the case of `COC(C)CNC(=O)Nc1cc2[nH]nc(-c3ccnc(C)c3)c2cn1` (stereo not shown) [Example 585], the half-maximal inhibitory concentration (IC50) under setting [1] was determined as 1.26 nM.

For the molecule `Cc1cc(-c2n[nH]c3cc(NC(=O)NCc4ccc[n+]([O-])c4)ncc23)ccn1` [Example 508], the IC50 under setting [1] is 11.6 nM.

Take `Cc1cc(-c2n[nH]c3cc(NC(=O)N[C@H](C)c4ccc(C#N)cc4)ncc23)ccn1` [Example 234]: under setting [1], the half-maximal inhibitory concentration (IC50) turned out to be 0.861 nM.

On to `C[C@@H](NC(=O)Nc1cc2[nH]nc(-c3ccnc(N4CCOCC4)c3)c2cn1)c1ccc(F)cc1` [Example 281], for which the IC50 under setting [1] was 1.91 nM.

Take `Cc1cc(-c2n[nH]c3cc(NC(=O)N[C@H]4CN(C)C[C@@H]4C4CCCCC4)ncc23)ccn1` [Example 208]: the IC50 under setting [1] is 6.73 nM.

As to `C[C@@H](NC(=O)Nc1cc2[nH]nc(-c3ccn4ncnc4c3)c2cn1)c1ccccc1` [Example 294], the IC50 under setting [1] was found to be 0.665 nM.

As to `C[C@@H](NC(=O)Nc1cc2[nH]nc(-c3ccc4c(c3)OCCO4)c2cn1)c1ccccc1` [Example 88, 1-[3-(2,3-dihydro-1,4-benzodioxin-6-yl)-1H-pyrazolo[4,3-c]pyridin-6-yl]-3-[(1R)-1-phenylethyl]urea], the IC50 under setting [1] is 1.16 nM and the IC50 under setting [2] lay in the range of 0.2 to 1.7 nM.

With `COc1ccc(-c2n[nH]c3cc(NC(=O)NCc4ccc(F)cc4)ncc23)cc1` [Example 677], the IC50 under setting [1] came out at 3.67 nM.

Consider `CN1CC[C@H](CNC(=O)Nc2cc3[nH]nc(-c4ccc(F)cc4)c3cn2)C1` [Example 322], for which, under setting [1], the concentration for half-maximal inhibition (IC50) worked out at 1.17 nM.

On to `Cc1cc(-c2n[nH]c3cc(NC(=O)N[C@H](C)c4ccncc4)ncc23)ccn1` [Example 236], for which the IC50 under setting [1] stood at 1.51 nM.

Regarding `C[C@@H](NC(=O)Nc1cc2[nH]nc(C(=O)NCC3(N(C)C)CCC3)c2cn1)c1ccccc1` [Example 119], the IC50 under setting [1] is 211 nM.

Take `CCOC[C@@H](NC(=O)Nc1cc2[nH]nc(C(F)F)c2cn1)c1ccccc1` [Example 692]: under setting [1], the IC50 is 12 nM.

As for `COC(=O)[C@H](C)NC(=O)Nc1cc2[nH]nc(-c3ccnc(C)c3)c2cn1` [Example 455], the IC50 under setting [1] was determined as 520 nM.

For `Cc1cc(-c2n[nH]c3cc(NC(=O)N[C@H]4[C@H](c5ccccc5C)CN(C)[C@H]4C)ncc23)ccn1` [Example 555], the concentration for half-maximal inhibition (IC50) under setting [1] was 0.426 nM.

As to `Cc1cc(-c2n[nH]c3cc(NC(=O)N[C@@H]4CCN(CC(F)(F)F)C4)ncc23)ccn1` [Example 326], under setting [1], the IC50 was 3.54 nM.

Consider `CC(F)(F)c1n[nH]c2cc(NC(=O)NCc3ccccc3)ncc12` [Example 667], for which the IC50 under setting [1] stood at 259 nM.

Regarding `Cc1cc(-c2n[nH]c3cc(NC(=O)N[C@H](C)c4ccc(Cl)c(C)c4)ncc23)ccn1` [Example 341], the IC50 under setting [1] turned out to be 2.91 nM.

With `Cc1cc(-c2n[nH]c3cc(NC(=O)NCc4ccccc4OCC(F)F)ncc23)ccn1` [Example 525], under setting [1], the IC50 was 0.358 nM.

`C[C@@H](NC(=O)Nc1cc2[nH]nc(C(=O)NCCC3(O)CCCC3)c2cn1)c1ccccc1` [Example 126]: under setting [1], the half-maximal inhibitory concentration (IC50) worked out at 8.33 nM.

Regarding `C[C@@H](NC(=O)Nc1cc2[nH]nc(C(=O)NCC(O)C(F)F)c2cn1)c1ccccc1` (stereo partly shown) [Example 123], under setting [1], the IC50 worked out at 4.49 nM.

As for `COC[C@@H](NC(=O)Nc1cc2[nH]nc(-c3ccnc(N4CCNCC4)c3)c2cn1)c1ccc(F)cc1` [Example 306], the 50% inhibitory concentration (IC50) under setting [1] amounted to 0.81 nM.

`CCC(C)C(NC(=O)Nc1cc2[nH]nc(-c3ccnc(C)c3)c2cn1)c1ccc(Cl)cc1` (stereo not shown) [Example 404]: under setting [1], the 50% inhibitory concentration (IC50) was determined as 11.1 nM.

`Cc1cc(-c2n[nH]c3cc(NC(=O)N[C@H]4CN[C@H](c5ccccc5)C4)ncc23)ccn1` [Example 374]: the IC50 under setting [1] worked out at 351 nM.

With `C[C@@H](NC(=O)Nc1cc2[nH]nc(C(=O)NCC34CC5CC(C3)C(O)C(C5)C4)c2cn1)c1ccccc1` (stereo partly shown) [Example 127], the IC50 under setting [1] was determined as 14.7 nM.

As to `Cc1cc(-c2n[nH]c3cc(NC(=O)N[C@H]4CN(C)[C@H](C(F)F)[C@@H]4c4ccccc4)ncc23)ccn1` [Example 569], under setting [1], the IC50 is 1.48 nM.

For `Cc1cc(-c2n[nH]c3cc(NC(=O)NC4CCc5ccccc54)ncc23)ccn1` (stereo not shown) [Example 78, 1-(2,3-dihydro-1H-inden-1-yl)-3-[3-(2-methylpyridin-4-yl)-1H-pyrazolo[4,3-c]pyridin-6-yl]urea], under setting [1], the IC50 was determined as 5.39 nM.

As to `Cc1cc(-c2n[nH]c3cc(NC(=O)NC(C)(C)c4ccccn4)ncc23)ccn1` [Example 357], the IC50 under setting [1] was found to be 106 nM.

For the molecule `Cc1cc(-c2n[nH]c3cc(NC(=O)N[C@H]4CN(C)C[C@@H]4c4ccccc4C(F)(F)F)ncc23)ccn1` [Example 178, 1-((3R,4S)-1-Methyl-4-(2-(trifluoromethyl)phenyl)pyrrolidin-3-yl)-3-(3-(2-methylpyridin-4-yl)-1H-pyrazolo[4,3-c]pyridin-6-yl)urea], under setting [1], the IC50 was 0.527 nM.

Take `COc1ccc(CNC(=O)Nc2cc3[nH]nc(-c4ccc(F)cc4)c3cn2)cc1OC` [Example 33, 1-(3,4-dimethoxybenzyl)-3-(3-(4-fluorophenyl)-1H-pyrazolo[4,3-c]pyridin-6-yl)urea]: the IC50 under setting [1] worked out at 15.2 nM.

For the molecule `Cc1cc(-c2n[nH]c3cc(NC(=O)N[C@H]4COC[C@@H]4O)ncc23)ccn1` [Example 188], the 50% inhibitory concentration (IC50) under setting [1] turned out to be 15.1 nM.

With `Cc1cc(-c2n[nH]c3cc(NC(=O)NCCC4COc5ccccc5O4)ncc23)ccn1` (stereo not shown) [Example 373], the IC50 under setting [1] is 1.07 nM.

As for `CCOC(=O)CCc1n[nH]c2cc(NC(=O)NCc3ccccc3)ncc12` [Example 173, Ethyl 3-(6-(3-benzylureido)-1H-pyrazolo[4,3-c]pyridin-3-yl)propanoate], under setting [1], the IC50 stood at 39.8 nM.

In the case of `Cc1ccnc(C(C)NC(=O)Nc2cc3[nH]nc(-c4ccnc(C)c4)c3cn2)c1` (stereo not shown) [Example 498], the IC50 under setting [1] turned out to be 2.82 nM.

For the molecule `COC[C@H](NC(=O)Nc1cc2[nH]nc(-c3ccc(F)cc3)c2cn1)c1ccccn1` [Example 486], the IC50 under setting [1] turned out to be 23.5 nM.

With `Cc1cc(-c2n[nH]c3cc(NC(=O)NC(C)c4cccnc4)ncc23)ccn1` (stereo not shown) [Example 49, 1-[3-(2-methylpyridin-4-yl)-1H-pyrazolo[4,3-c]pyridin-6-yl]-3-(1-pyridin-3-ylethyl)urea], the IC50 under setting [1] was found to be 1.04 nM and the IC50 under setting [2] was in the range of 0.2 to 1.7 nM.

Turning to `Cc1cc(-c2n[nH]c3cc(NC(=O)NCc4nnc(-c5ccccc5)[nH]4)ncc23)ccn1` [Example 397], the IC50 under setting [1] turned out to be 48.1 nM.

`Cc1cc(-c2n[nH]c3cc(NC(=O)NC4CCc5ccncc5C4)ncc23)ccn1` (stereo not shown) [Example 400]: the IC50 under setting [1] came to 5.42 nM.

Turning to `Cc1cc(-c2n[nH]c3cc(NC(=O)NC[C@@H]4COCCO4)ncc23)ccn1` [Example 550], the IC50 under setting [1] is 2.43 nM.

For the molecule `Cc1cc(-c2n[nH]c3cc(NC(=O)NCc4cc(C)on4)ncc23)ccn1` [Example 470], the half-inhibitory concentration (IC50) under setting [1] was 4.12 nM.

`Cc1cc(-c2n[nH]c3cc(NC(=O)NCC4CCO4)ncc23)ccn1` (stereo not shown) [Example 484]: the IC50 under setting [1] turned out to be 376 nM.

As for `Cc1cc(-c2n[nH]c3cc(NC(=O)N[C@@H]4CNC[C@@H]4c4ccccc4)ncc23)ccn1` [Example 180], under setting [1], the IC50 amounted to 4.58 nM.

Consider `COC[C@@H](NC(=O)Nc1cc2[nH]nc(-c3ccc(C#N)nc3)c2cn1)c1ccc(F)cc1` [Example 303], for which the 50% inhibitory concentration (IC50) under setting [1] amounted to 3.21 nM.

Take `Cc1cc(-c2n[nH]c3cc(NC(=O)N[C@@H](c4ccccc4)C4(O)CCCC4)ncc23)ccn1` [Example 531]: the IC50 under setting [1] was 0.545 nM.

As to `Cc1cc(-c2n[nH]c3cc(NC(=O)NC[C@H](C)c4ccccc4)ncc23)ccn1` [Example 621], under setting [1], the half-inhibitory concentration (IC50) turned out to be 1.29 nM.

Take `Cc1cc(-c2n[nH]c3cc(NC(=O)N[C@@H]4CN(C)C[C@H]4c4cccc(Cl)c4)ncc23)ccn1` [Example 581]: the IC50 under setting [1] amounted to 0.233 nM.

For the molecule `Cc1cc(-c2n[nH]c3cc(NC(=O)NCC(=O)O)ncc23)ccn1` [Example 462], the IC50 under setting [1] was determined as 356 nM.
